Laboratory results taken from patent US20040038367A1, “Novel xyloglucan oligosaccharide-degrading enzyme, polynucleotide encoding the enzyme, and method of preparing the enzyme” (NATIONAL INSTITUTE OF ADVANCED INDUSTRIAL SCIENCE AND …, priority 2002, published 2004).

Biological target: T1, xyloglucan oligosaccharide-degrading enzyme (Geotrichum sp., UniProt Q8J0D2)
T1 construct: made in house; host or cells: Geotrichum sp. strain M128 (natural producer; enzyme purified, not recombinant)
Assay: Inhibition of the enzyme activity by metal ions
Type: biochemical, Geotrichum sp. strain M128
Details: concentration of 1 mM or more

[Hg+2] [mercury ion]
inhibition of the activity of the enzyme: strongly inhibited
